Assays:
[1] = test system: STEME; test: Herbicidal post-emergence action 1a (greenhouse pots, visual rating); assay type: in vivo, Stellaria media; details: Dosage 80 g/ha; rated visually about 3 weeks after treatment; 100% = plants have died, 0% = like control plants
How it was run: (§1)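 Visual scoring versus untreated plants (100% = plants dead, 0% = as control) followed roughly 3 weeks in the greenhouse after treatment. Plants grown in sandy loam pots had been sprayed on green parts at the one-leaf stage, 2–3 weeks post-sowing, with aqueous WP/EC preparations containing 0.5% additive, 600 l/ha, at 320 and/or 80 g/ha.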

[2] = test system: DIGSA; test: as above; assay type: in vivo, Digitaria sanguinalis; details: rated visually about 3 weeks after treatment, 100% = plants have died, 0% = like control plants
Protocol: (§2) [table] a) Seeds of monocotyledonous and dicotyledonous weeds and crop plants are placed in sandy loam in plastic or organic plant pots, covered with soil and cultivated in a greenhouse under controlled growth conditions. 2 to 3 weeks after sowing, the test plants are treated at the one-leaf stage. The compounds of the invention, formulated in the form of wettable powders (WP) or as emulsion concentrates (EC), are then sprayed onto the green parts of the plants as aqueous suspension or emulsion with addition of 0.5% additive at a water application rate of 600 1/ha (converted). After the test plants have been kept in the greenhouse under optimum growth conditions for about 3 weeks, the activity of the preparations is rated visually in comparison to untreated controls. For example, 100% activity=the plants have died, 0% activity=like control plants. Tables A1 to A15 below show the effects of selected compounds of the general formula (I) according to Tables 1 and 2 on various harmful plants and an application rate corresponding to 320 g/ha and/or 80 g/ha, which were obtained by the experimental procedure mentioned above.

[3] = test system: POLCO; test: as above; assay type: in vivo, Polygonum convolvulus; details: dosage 80 g/ha, visual rating about 3 weeks after treatment
How it was run: as §1

[4] = test system: STEME; test: Herbicidal pre-emergence action 2a (greenhouse pots, visual scoring); assay type: in vivo, Stellaria media; details: dosage 320 g/ha, visual scoring after about 3 weeks vs untreated controls
From the text: (§3) [table] a) Seeds of monocotyledonous and dicotyledonous weed plants and crop plants are placed in plastic or organic plant pots and covered with soil. The compounds of the invention, formulated in the form of wettable powders (WP) or as emulsion concentrates (EC), are then applied onto the surface of the covering soil as aqueous suspension or emulsion with addition of 0.5% additive at a water application rate of 600 1/ha (converted). After the treatment, the pots are placed in a greenhouse and kept under good growth conditions for the trial plants. After about 3 weeks, the effect of the preparations is scored visually in comparison with untreated controls as percentages. For example, 100% activity=the plants have died, 0% activity=like control plants. Tables B1 to B15 below show the effects of selected compounds of the general formula (I) according to Tables 1 and 2 on various harmful plants and an application rate corresponding to 320 g/ha and/or 80 g/ha, which were obtained by the experimental procedure mentioned above.

[5] = test system: HORMU; test: as above; assay type: in vivo, Hordeum murinum; details: dosage 320 g/ha, visual scoring after about 3 weeks vs untreated controls
From the text: as §3

[6] = test system: AMARE; test: as above; assay type: in vivo, Amaranthus retroflexus; details: dosage 320 g/ha, visual scoring after about 3 weeks vs untreated controls
How it was run: (§4)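 Seeds were sown in pots, covered with soil, and the compound (WP or EC formulation) was sprayed onto the soil surface as an aqueous suspension or emulsion with 0.5% additive at 600 l/ha water, at 320 g/ha and/or 80 g/ha. Greenhouse growth followed for about 3 weeks, then visual scoring against untreated controls.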

[7] = test system: AVEFA; test: as above; assay type: in vivo, Avena fatua; details: dosage 320 g/ha, visual scoring after about 3 weeks
How it was run: as §4

[8] = test system: PHBPU; test: Herbicidal post-emergence action 1a (greenhouse pots, visual rating); assay type: in vivo, Pharbitis purpurea; details: dosage 80 g/ha, visual rating about 3 weeks after treatment
How it was run: as §1

[9] = test system: VERPE; test: as above; assay type: in vivo, Veronica persica; details: dosage 80 g/ha, visual rating about 3 weeks after treatment
How it was run: as §1

[10] = test system: ECHCG; test: Herbicidal pre-emergence action 2a (greenhouse pots, visual scoring); assay type: in vivo, Echinochloa crus-galli; details: dosage 320 g/ha, visual scoring after about 3 weeks
How it was run: as §4

[11] = test system: harmful plants; test: Herbicidal pre-emergence action 2a, summary across species; assay type: in vivo; details: Tables B1 to B15 (320 g/ha and/or 80 g/ha)
From the text: as §3, with “a)” for “[table] a)”, “plants.” for “plants. Tables B1 to B15 below show the effects of selected compounds of the general formula (I) according to Tables 1 and 2 on various harmful plants and an application rate corresponding to 320 g/ha and/or 80 g/ha, which were obtained by the experimental procedure mentioned above.”
Tables B1 to B15 below show the effects of selected compounds of the general formula (I) according to Tables 1 and 2 on various harmful plants and an application rate corresponding to 320 g/ha and/or 80 g/ha, which were obtained by the experimental procedure mentioned above.
For example, compound nos. I-07, I-08, I-11, I-12, I-13, I-16, I-17, I-20, I-36, I-37, I-39, I-45, I-46, I-48, I-52 and I-53 in the pre-emergence method have very good action (80% to 100% herbicidal activity) against harmful plants such as Alopecurus myosuroides, Amaranthus retroflexus, Digitaria sanguinalis, Lolium rigidum, Polygonum convolvulus, Setaria viridis, Veronica persica and Viola tricolor at an application rate of 0.32 kg of active substance per hectare.

[12] = test system: MATIN; test: Herbicidal post-emergence action 1a (greenhouse pots, visual rating); assay type: in vivo, Matricaria inodora; details: dosage 320 g/ha, visual rating about 3 weeks after treatment
How it was run: as §1

[13] = test system: VIOTR; test: Herbicidal pre-emergence action 2a (greenhouse pots, visual scoring); assay type: in vivo, Viola tricolor; details: dosage 320 g/ha, visual scoring after about 3 weeks vs untreated controls
How it was run: as §4

[14] = test system: HORMU; test: Herbicidal post-emergence action 1a (greenhouse pots, visual rating); assay type: in vivo, Hordeum murinum; details: rated visually about 3 weeks after treatment, 100% = plants have died, 0% = like control plants
Protocol: as §2

[15] = test system: AMARE; test: as above; assay type: in vivo, Amaranthus retroflexus; details: dosage 80 g/ha, visual rating about 3 weeks after treatment
How it was run: as §1

[16] = test system: ALOMY; test: as above; assay type: in vivo, Alopecurus myosuroides; details: Dosage 80 g/ha; rated visually about 3 weeks after treatment; 100% = plants have died, 0% = like control plants
How it was run: as §1

[17] = test system: VIOTR; test: as above; assay type: in vivo, Viola tricolor; details: dosage 80 g/ha, visual rating about 3 weeks after treatment
How it was run: as §1

[18] = test system: ALOMY; test: Herbicidal pre-emergence action 2a (greenhouse pots, visual scoring); assay type: in vivo, Alopecurus myosuroides; details: dosage 320 g/ha, visual scoring after about 3 weeks
How it was run: as §4

[19] = test system: ABUTH; test: Herbicidal post-emergence action 1a (greenhouse pots, visual rating); assay type: in vivo, Abutilon theophrasti; details: dosage 320 g/ha, visual rating about 3 weeks after treatment
How it was run: as §1

[20] = test system: LOLRI; test: as above; assay type: in vivo, Lolium rigidum; details: Dosage 80 g/ha; rated visually about 3 weeks after treatment; 100% = plants have died, 0% = like control plants
How it was run: as §1

[21] = test system: AVEFA; test: as above; assay type: in vivo, Avena fatua; details: Dosage 80 g/ha; rated visually about 3 weeks after treatment; 100% = plants have died, 0% = like control plants
How it was run: as §1

[22] = test system: POLCO; test: Herbicidal pre-emergence action 2a (greenhouse pots, visual scoring); assay type: in vivo, Polygonum convolvulus; details: dosage 320 g/ha, visual scoring after about 3 weeks vs untreated controls
How it was run: as §4

[23] = test system: VERPE; test: as above; assay type: in vivo, Veronica persica; details: dosage 320 g/ha, visual scoring after about 3 weeks vs untreated controls
How it was run: as §4

[24] = test system: ECHCG; test: Herbicidal post-emergence action 1a (greenhouse pots, visual rating); assay type: in vivo, Echinochloa crus-galli; details: rated visually about 3 weeks after treatment, 100% = plants have died, 0% = like control plants
How it was run: as §1

[25] = test system: DIGSA; test: Herbicidal pre-emergence action 2a (greenhouse pots, visual scoring); assay type: in vivo, Digitaria sanguinalis; details: dosage 320 g/ha, visual scoring after about 3 weeks
How it was run: as §4

[26] = test system: SETVI; test: as above; assay type: in vivo, Setaria viridis; details: dosage 320 g/ha, visual scoring after about 3 weeks vs untreated controls
How it was run: as §4

C=CCOC(=O)C(C)Oc1nn(-c2cnccn2)c(-c2ccc(F)nc2)c1Br (racemic) [Example I-13]
Post-emergence action against STEME in % [1]: 90%
Post-emergence action against DIGSA in % ([2]; Dosage 80 g/ha): 80%
Post-emergence action against DIGSA in % ([2]; Dosage 320 g/ha): 90%
Post-emergence action against POLCO in % [3]: 80%
Pre-emergence action against STEME in % [4]: 90%
Pre-emergence action against HORMU in % [5]: 100%
Pre-emergence action against AMARE in % [6]: 100%
Pre-emergence action against AVEFA in % [7]: 90%
Post-emergence action against PHBPU in % [8]: 80%
Post-emergence action against VERPE in % [9]: 90%
Pre-emergence action against ECHCG in % [10]: 100%
herbicidal efficacy against harmful plants in the case of pre-emergence treatment (in words) [11]: good herbicidal efficacy
Post-emergence action against MATIN in % [12]: 80%
Pre-emergence action against VIOTR in % [13]: 100%
Post-emergence action against HORMU in % ([14]; Dosage 80 g/ha): 90%
Post-emergence action against HORMU in % ([14]; Dosage 320 g/ha): 90%
Post-emergence action against AMARE in % [15]: 80%
Post-emergence action against ALOMY in % [16]: 90%
Post-emergence action against VIOTR in % [17]: 90%
Pre-emergence action against ALOMY in % [18]: 100%
Post-emergence action against ABUTH in % [19]: 80%
Post-emergence action against LOLRI in % [20]: 80%
Post-emergence action against AVEFA in % [21]: 100%
Pre-emergence action against POLCO in % [22]: 90%
Pre-emergence action against VERPE in % [23]: 100%
Post-emergence action against ECHCG in % ([24]; Dosage 80 g/ha): 80%
Post-emergence action against ECHCG in % ([24]; Dosage 320 g/ha): 90%
Pre-emergence action against DIGSA in % [25]: 100%
Pre-emergence action against SETVI in % [26]: 100%

— patent US20230167088A1, “1-PYRAZINYLPYRAZOLYL-3-OXYALKYL ACIDS AND THEIR DERIVATIVES, AND THEIR USE FOR CONTROL OF UNDESIRED PLANT GROWTH” (BAYER AKTIENGESELLSCHAFT, priority 2020, published 2023)
